Read-outs that look alike come from different tables or passages of the source.
Key:
Assay in all cases: KinomeScan kinase panel, single concentration 10 µM
Assay type in all cases: binding
[1] = target: T1, KinomeScan kinase panel (Homo sapiens, UniProt P28482); conditions: ERK2, 10 µM; read-out: score (%)
T1 construct: purchased DiscoveRx (KinomeScan)

[2] = target: T2, KinomeScan kinase panel (Homo sapiens, UniProt P35916); conditions: FLT4, 10 µM; read-out: score (%)
T2 construct: purchased DiscoveRx (KinomeScan)

[3] = target: T3, KinomeScan kinase panel (Homo sapiens, UniProt Q06418); conditions: kinase TYRO3; 10 µM; read-out: score (%)
T3 construct: purchased DiscoveRx (KinomeScan)
T3 sequence (Q06418 41-890): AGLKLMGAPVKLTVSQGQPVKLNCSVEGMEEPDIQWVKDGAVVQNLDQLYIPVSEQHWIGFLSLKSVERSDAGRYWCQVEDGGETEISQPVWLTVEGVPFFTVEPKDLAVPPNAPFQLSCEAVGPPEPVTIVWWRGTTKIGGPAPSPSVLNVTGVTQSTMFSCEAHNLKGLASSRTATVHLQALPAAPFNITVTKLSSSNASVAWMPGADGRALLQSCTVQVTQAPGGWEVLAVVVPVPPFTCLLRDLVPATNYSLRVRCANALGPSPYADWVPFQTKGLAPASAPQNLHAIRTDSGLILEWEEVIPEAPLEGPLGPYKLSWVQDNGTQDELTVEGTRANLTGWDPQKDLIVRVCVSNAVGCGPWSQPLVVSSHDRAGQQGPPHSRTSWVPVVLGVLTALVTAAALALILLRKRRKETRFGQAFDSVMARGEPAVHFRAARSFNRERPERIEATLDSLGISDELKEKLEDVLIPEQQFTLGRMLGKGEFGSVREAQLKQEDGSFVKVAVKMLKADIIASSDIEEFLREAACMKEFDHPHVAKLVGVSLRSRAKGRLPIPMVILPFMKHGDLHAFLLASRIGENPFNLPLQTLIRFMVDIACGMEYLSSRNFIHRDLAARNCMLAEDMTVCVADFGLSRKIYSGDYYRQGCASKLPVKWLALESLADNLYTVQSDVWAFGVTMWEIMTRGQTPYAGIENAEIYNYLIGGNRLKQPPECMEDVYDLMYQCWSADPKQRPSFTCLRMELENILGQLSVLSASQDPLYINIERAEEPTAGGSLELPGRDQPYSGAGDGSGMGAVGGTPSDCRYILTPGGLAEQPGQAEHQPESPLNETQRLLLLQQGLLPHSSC

[4] = target: T4, KinomeScan kinase panel (Homo sapiens, UniProt Q9H093); conditions: 10 µM
T4 construct: purchased DiscoveRx (KinomeScan)
T4 sequence (Q9H093 1-628): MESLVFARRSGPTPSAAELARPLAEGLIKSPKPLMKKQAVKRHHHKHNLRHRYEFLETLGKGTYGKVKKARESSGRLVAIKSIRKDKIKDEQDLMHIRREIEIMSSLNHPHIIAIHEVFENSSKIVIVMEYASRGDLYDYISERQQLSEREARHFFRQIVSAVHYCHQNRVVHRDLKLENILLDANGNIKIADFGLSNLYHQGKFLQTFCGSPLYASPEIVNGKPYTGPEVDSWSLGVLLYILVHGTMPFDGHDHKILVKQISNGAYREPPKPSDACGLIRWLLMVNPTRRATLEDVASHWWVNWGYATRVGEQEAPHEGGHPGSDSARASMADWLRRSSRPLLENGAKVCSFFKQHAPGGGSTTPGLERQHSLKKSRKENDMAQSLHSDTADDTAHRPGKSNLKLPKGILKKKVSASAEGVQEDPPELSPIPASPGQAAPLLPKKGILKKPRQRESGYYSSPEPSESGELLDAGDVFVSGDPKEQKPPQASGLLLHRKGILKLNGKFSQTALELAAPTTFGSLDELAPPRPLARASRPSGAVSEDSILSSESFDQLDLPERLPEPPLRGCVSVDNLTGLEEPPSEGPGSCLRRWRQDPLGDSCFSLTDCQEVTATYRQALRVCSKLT

[5] = target: T5, KinomeScan kinase panel (Homo sapiens, UniProt Q13882); conditions: read-out: score (%)
T5 construct: purchased DiscoveRx (KinomeScan)

[6] = target: T6, KinomeScan kinase panel (Homo sapiens, UniProt Q13873); conditions: BMPR2, 10 µM
T6 construct: purchased DiscoveRx (KinomeScan)
T6 sequence (Q13873 27-1038): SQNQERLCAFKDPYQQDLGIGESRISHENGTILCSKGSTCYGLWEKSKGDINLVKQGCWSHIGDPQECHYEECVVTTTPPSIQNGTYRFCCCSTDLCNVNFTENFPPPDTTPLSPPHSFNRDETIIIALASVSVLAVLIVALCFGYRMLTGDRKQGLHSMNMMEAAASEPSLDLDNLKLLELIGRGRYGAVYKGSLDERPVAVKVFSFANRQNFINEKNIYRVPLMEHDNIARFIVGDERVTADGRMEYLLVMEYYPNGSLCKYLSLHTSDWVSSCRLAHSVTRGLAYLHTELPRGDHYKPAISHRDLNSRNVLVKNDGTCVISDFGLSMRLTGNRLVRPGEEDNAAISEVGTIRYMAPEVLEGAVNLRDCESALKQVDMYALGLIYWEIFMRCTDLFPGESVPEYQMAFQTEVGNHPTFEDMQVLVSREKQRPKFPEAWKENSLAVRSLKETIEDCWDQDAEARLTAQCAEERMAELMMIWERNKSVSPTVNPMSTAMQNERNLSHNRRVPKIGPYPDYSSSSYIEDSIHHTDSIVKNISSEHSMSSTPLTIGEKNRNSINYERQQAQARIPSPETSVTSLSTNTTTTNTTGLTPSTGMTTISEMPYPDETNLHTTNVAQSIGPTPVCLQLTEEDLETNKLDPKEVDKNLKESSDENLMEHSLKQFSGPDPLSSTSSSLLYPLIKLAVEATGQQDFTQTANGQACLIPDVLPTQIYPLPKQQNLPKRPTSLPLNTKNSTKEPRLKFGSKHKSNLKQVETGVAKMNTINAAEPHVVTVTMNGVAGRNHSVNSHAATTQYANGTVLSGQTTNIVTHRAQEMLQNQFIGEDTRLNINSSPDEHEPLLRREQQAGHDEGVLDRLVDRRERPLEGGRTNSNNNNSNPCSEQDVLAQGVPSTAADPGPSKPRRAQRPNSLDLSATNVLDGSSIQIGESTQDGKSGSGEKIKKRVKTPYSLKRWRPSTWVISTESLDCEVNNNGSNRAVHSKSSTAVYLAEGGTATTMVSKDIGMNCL

[7] = target: T7, KinomeScan kinase panel (Homo sapiens, UniProt Q9NYL2); conditions: kinase ZAK; 10 µM; read-out: score (%)
T7 construct: purchased DiscoveRx (KinomeScan)
T7 sequence (Q9NYL2 whole entry): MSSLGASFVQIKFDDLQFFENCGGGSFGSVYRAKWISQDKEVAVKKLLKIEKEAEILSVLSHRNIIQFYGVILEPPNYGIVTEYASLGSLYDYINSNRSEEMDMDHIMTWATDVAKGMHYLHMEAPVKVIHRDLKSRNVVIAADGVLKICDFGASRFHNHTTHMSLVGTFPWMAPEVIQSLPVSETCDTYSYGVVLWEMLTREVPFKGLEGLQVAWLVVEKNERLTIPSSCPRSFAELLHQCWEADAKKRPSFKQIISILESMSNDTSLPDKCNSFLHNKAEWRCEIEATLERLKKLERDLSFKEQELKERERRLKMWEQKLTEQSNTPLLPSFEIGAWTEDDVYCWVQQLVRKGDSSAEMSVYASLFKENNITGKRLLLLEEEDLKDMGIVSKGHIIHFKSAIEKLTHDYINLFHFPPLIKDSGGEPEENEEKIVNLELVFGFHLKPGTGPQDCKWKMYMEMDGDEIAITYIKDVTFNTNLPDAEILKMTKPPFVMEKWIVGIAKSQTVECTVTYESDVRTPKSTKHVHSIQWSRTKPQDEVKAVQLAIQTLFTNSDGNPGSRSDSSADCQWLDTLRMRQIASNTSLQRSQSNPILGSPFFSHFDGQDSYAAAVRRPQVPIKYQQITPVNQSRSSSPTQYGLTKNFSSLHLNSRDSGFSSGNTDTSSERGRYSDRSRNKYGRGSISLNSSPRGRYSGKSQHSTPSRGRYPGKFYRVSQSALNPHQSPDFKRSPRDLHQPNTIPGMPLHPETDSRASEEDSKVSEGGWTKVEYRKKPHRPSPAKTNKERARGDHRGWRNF

T2 sequence (P35916 25-1363): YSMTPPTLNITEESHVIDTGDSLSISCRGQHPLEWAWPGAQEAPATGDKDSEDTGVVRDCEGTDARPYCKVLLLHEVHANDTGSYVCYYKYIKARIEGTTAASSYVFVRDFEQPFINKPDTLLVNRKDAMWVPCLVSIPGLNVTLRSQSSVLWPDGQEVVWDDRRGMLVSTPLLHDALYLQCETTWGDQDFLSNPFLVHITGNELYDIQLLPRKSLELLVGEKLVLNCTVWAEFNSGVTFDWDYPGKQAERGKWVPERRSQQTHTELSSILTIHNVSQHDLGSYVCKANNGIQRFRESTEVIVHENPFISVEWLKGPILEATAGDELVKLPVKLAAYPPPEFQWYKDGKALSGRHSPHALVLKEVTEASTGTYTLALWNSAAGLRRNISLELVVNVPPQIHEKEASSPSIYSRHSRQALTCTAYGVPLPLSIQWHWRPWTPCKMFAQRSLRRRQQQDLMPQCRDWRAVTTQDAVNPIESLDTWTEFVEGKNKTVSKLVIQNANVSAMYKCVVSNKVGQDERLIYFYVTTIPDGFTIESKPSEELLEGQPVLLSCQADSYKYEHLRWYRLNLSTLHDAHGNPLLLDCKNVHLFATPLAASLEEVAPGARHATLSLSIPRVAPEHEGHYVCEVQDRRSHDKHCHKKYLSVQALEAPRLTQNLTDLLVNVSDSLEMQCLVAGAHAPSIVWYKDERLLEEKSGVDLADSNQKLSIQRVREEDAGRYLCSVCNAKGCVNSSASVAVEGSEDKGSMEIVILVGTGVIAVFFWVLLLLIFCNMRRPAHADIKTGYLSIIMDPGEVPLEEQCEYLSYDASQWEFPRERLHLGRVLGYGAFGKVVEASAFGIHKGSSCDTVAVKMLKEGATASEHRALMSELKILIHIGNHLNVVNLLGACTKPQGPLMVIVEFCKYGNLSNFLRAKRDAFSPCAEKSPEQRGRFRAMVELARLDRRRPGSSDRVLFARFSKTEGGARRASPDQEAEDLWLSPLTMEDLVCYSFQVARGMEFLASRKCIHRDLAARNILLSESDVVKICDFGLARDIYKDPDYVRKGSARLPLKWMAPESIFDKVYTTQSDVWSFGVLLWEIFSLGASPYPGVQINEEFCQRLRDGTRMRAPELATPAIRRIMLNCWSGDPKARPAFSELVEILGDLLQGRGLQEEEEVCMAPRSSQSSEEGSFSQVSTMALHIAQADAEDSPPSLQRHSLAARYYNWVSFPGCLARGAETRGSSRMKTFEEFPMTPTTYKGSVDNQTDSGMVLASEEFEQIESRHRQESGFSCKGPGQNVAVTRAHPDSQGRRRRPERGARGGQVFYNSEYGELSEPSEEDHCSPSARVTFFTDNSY
T1 sequence (P28482 whole entry): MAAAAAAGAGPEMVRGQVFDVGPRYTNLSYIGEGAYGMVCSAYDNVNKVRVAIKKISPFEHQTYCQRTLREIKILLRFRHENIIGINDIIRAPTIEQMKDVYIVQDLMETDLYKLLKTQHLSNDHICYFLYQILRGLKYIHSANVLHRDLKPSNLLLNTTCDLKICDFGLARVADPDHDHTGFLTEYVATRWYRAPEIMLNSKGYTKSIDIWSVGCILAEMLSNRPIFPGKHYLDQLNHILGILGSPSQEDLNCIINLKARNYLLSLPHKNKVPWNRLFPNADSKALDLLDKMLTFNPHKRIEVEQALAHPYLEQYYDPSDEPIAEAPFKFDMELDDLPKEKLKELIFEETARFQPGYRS
T5 sequence (Q13882 whole entry): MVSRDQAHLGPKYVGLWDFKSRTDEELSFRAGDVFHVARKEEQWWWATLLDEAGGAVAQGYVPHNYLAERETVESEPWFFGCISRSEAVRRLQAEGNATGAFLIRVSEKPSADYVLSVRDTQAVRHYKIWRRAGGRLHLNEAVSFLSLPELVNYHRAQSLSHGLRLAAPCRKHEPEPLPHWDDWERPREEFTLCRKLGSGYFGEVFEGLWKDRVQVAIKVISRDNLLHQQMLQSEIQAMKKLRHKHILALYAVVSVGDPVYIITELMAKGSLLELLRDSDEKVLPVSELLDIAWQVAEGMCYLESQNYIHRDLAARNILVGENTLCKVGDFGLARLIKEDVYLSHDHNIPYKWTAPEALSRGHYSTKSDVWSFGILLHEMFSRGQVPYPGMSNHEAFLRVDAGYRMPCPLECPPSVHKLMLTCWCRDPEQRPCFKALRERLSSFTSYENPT

Row | Compound | remaining binding at 10 µM [1] [%] | remaining binding at 10 µM [2] [%] | remaining binding at 10 µM [3] [%] | score (%) ([4]; kinase SNARK) | remaining binding at 10 µM ([5]; BRK, 10 µM) [%] | score (%) [6] | remaining binding at 10 µM [7] [%] | score (%) ([4]; SNARK) | remaining binding at 10 µM ([5]; PTK6, 10 µM) [%]
1 | CCN1CCN(Cc2ccc(NC(=O)c3ccc(C)c(NC(=O)c4cncc(-c5cccs5)c4)c3)cc2C(F)(F)F)CC1 [ALW-II-41-27] | > 30 | 0 | > 30 | nb (Hits values higher than 30% were considered negative (no binding: nb)) | 8.2 | nb (Hits values higher than 30% were considered negative (no binding: nb)) | 3 |  | 
2 | CCN1CCN(Cc2ccc(NC(=O)c3ccc(C)c(/C=C/c4cnc5[nH]ccc5c4Cl)c3)cc2C(F)(F)F)CC1 [HG-6-63-01, (E)-3-(2-(4-chloro-1H-pyrrolo[2,3-b]pyridin-5-yl)vinyl)-N-(4-((4-ethylpiperazin-1-yl)methyl)-3-(trifluoromethyl)phenyl)-4-methylbenzamide] | > 30 | 0.15 | > 30 |  |  | 8.2% | 0.35 | nb (Hits values higher than 30% were considered negative (no binding: nb)) | 17
3 | CCN1CCN(Cc2ccc(NC(=O)c3ccc(C)c(C#Cc4cccnc4)c3)cc2C(F)(F)F)CC1 [XMD15-44] | > 30 | 0 | 100 | 99% | 2.8 | nb (Hits values higher than 30% were considered negative (no binding: nb)) | 0.4 |  | 
